The values below come from patent publication US9604975B2, “Indolyl-pyridone derivatives having checkpoint kinase 1 inhibitory activity” (Vernalis (R&D) Ltd., priority 2009, dated 2017).

By IC50 is commonly meant the concentration that gives 50% inhibition.

The assay deals with T1, CHK1 (Homo sapiens, UniProt O14757).
T1 construct: His; purchased Invitrogen
T1 sequence (O14757 1-476): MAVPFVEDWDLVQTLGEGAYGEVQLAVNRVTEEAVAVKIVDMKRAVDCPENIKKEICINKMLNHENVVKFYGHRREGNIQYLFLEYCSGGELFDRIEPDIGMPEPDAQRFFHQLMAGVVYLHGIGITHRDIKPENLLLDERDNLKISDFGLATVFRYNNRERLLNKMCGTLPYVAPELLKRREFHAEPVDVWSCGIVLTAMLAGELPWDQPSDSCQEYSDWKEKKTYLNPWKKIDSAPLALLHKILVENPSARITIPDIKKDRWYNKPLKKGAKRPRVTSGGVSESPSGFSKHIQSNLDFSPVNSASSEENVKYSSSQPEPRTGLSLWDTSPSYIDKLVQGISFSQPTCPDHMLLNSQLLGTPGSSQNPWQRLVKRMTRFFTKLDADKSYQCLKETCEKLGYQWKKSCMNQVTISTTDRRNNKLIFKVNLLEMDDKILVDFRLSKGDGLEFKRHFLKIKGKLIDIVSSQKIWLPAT
Description: CHK1 Enzyme Assay (phosphorylation of Chktide peptide, 33P-ATP filter assay). The assay is classed as biochemical. The following applies: 12.5 nM His-CHK1, 0.01 mM ATP, 40 minutes at 30° C.; read-out: CHK1 Enzyme Activity (IC50 range). The protocol: Assays for the CHK1 kinase activity were carried out by monitoring the phosphorylation of a synthetic peptide Chktide with the amino acid sequence, […]. The assay mixture containing the inhibitor and CHK1 enzyme was mixed together in a microtiter plate in a final volume of 50 μl and incubated for 40 minutes at 30° C.
The assay mixture contained 0.01 mM unlabeled ATP, 0.5 μCi ^33P-γ-ATP, 14.8 μM Chktide, 0.1 mg/mL BSA, 50 mM Hepes-NaOH pH 7.5 and 12.5 nM His-CHK1 (Invitrogen) enzyme. The reaction was stopped by adding 50 μL of 50 mM phosphoric acid. 90 μL of the mixture was transferred to a pre-wetted 96-well multi-screen MAPHNOB filtration plate (Millipore) and filtered on a vacuum manifold. The filter plate was washed with 3 successive additions of 200 μl 50 mM phosphoric acid and then with 100 μL methanol. The filtration plate was dried for 10 min at 65° C., scintillant added and phosphorylated peptide quantified in a scintillation counter (Trilux, PerkinElmer).

In the case of `CN1CCN(Cc2ccc3[nH]c(-c4cc(NC(=O)c5cnn(Cc6ccc(Cl)cc6)c5)c[nH]c4=O)cc3c2)CC1` [Example 53, 1-(4-Chloro-benzyl)-1H-pyrazole-4-carboxylic acid {5-[5-(4-methyl-piperazin-1-ylmethyl)-1H-indol-2-yl]-6-oxo-1,6-dihydro-pyridin-3-yl}-amide], the IC50 was less than 100 nM.
Next, `Cc1ccc(Cn2cc(C(=O)Nc3c[nH]c(=O)c(-c4cc5cc(CNCCO)ccc5[nH]4)c3)cn2)cc1` [Example 54, 1-(4-Methyl-benzyl)-1H-pyrazole-4-carboxylic acid {5-[5-[(2-hydroxy-ethylamino)-methyl]-1H-indol-2-yl}-6-oxo-1,6-dihydro-pyridin-3-yl]-amide]: less than 100 nM; `O=C(Nc1c[nH]c(=O)c(-c2cc3cc(CN4CCCC4)ccc3[nH]2)c1)c1cnn(Cc2ccc(Cl)cc2)c1` [Example 55, 1-(4-Chloro-benzyl)-1H-pyrazole-4-carboxylic acid [6-oxo-5-(5-pyrrolidin-1-ylmethyl-1H-indol-2-yl)-1,6-dihydro-pyridin-3-yl]-amide]: less than 100 nM.
As for `CCN(CCO)Cc1ccc2[nH]c(-c3cc(NC(=O)c4cnn(Cc5ccccc5)c4)c[nH]c3=O)cc2c1` [Example 56, 1-Benzyl-1H-pyrazole-4-carboxylic acid [5-(5-{[ethyl-(2-hydroxy-ethyl)-amino]-methyl}-1H-indol-2-yl)-6-oxo-1,6-dihydro-pyridin-3-yl]-amide], the half-inhibitory concentration (IC50) is less than 100 nM.
Under `O=C(Nc1c[nH]c(=O)c(-c2cc3cc(CN4CCCC(F)C4)ccc3[nH]2)c1)c1cnn(Cc2ccccc2)c1` (centres unmarked) [Example 57, 1-Benzyl-1H-pyrazole-4-carboxylic acid {5-[5-(3-fluoro-piperidin-1-ylmethyl)-1H-indol-2-yl]-6-oxo-1,6-dihydro-pyridin-3-yl}-amide] stands less than 100 nM; under `CN1CCN(Cc2ccc3[nH]c(-c4cc(NC(=O)c5cnn(Cc6ccccc6)c5)c[nH]c4=O)cc3c2)CC1` [Example 58, 1-Benzyl-1H-pyrazole-4-carboxylic acid {5-[5-(4-methyl-piperazin-1-ylmethyl)-1H-indol-2-yl]-6-oxo-1,6-dihydro-pyridin-31}-amide], less than 100 nM.
Regarding `Cc1ccc(Cn2cc(C(=O)Nc3c[nH]c(=O)c(-c4cc5cc(CN6CCN(C)CC6)ccc5[nH]4)c3)cn2)cc1` [Example 59, 1-(4-Methyl-benzyl)-1H-pyrazole-4-carboxylic acid {5-[5-(4-methyl-piperazin-1-ylmethyl)-1H-indol-2-yl]-6-oxo-1,6-dihydro-pyridin-3-yl}-amide], the IC50 was less than 100 nM.
In the case of `O=C(Nc1c[nH]c(=O)c(-c2cc3cc(CN4CCC(O)CC4)ccc3[nH]2)c1)c1cnn(Cc2ccccc2)c1` [Example 60, 1-Benzyl-1H-pyrazole-4-carboxylic acid {5-[5-(4-hydroxy-piperidin-1-ylmethyl)-1H-indol-2-yl]-6-oxo-1,6-dihydro-pyridin-3-yl}-amide], the IC50 was less than 100 nM.
Next, `O=C(Nc1c[nH]c(=O)c(-c2cc3cc(CNCCO)ccc3[nH]2)c1)c1cnn(Cc2ccccc2)c1` [Example 61]: less than 100 nM; `Cc1ccc(Cn2cc(C(=O)Nc3c[nH]c(=O)c(-c4cc5cc(CN6CCN(CCO)CC6)ccc5[nH]4)c3)cn2)cc1` [Example 62, 1-(4-Methyl-benzyl)-1H-pyrazole-4-carboxylic acid (5-{5-[4-(2-hydroxy-ethyl)-piperazin-1-ylmethyl]-1H-indol-2-yl}-6-oxo-1,6-dihydro-pyridin-3-yl)-amide]: less than 100 nM.
Under `O=C(Nc1c[nH]c(=O)c(-c2cc3cc(CN4CCCC(F)C4)ccc3[nH]2)c1)c1cnn(Cc2ccc(Cl)cc2)c1` (centres unmarked) [Example 63, 1-(4-Chloro-benzyl)-1H-pyrazole-4-carboxylic acid {5-[5-(3-fluoro-piperidin-1-ylmethyl)-1H-indol-2-yl]-6-oxo-1,6-dihydro-pyridin-3-yl}-amide] stands less than 100 nM.
